Assay results taken from patent US12102634B2, “Use of berbamine or its analogue for preventing or treating RNA virus infection” (City University of Hong Kong, priority 2019, dated 2024).
“Also recorded” adds a separate entry of the source. Like-named read-outs stand apart in the source and are kept apart here.

Legend:
ZIKV [1] = assay: Viral positive RNA strand hybridization in host cells treated with calcium chelator; format: cell-based, Zika virus
JEV [2] = assay: Western blot of JEV envelope protein in A549 cells; settings: dose dependent
JEV [3] = assay: High-content image assay (DsRNA immunostaining), JEV infection of A549 cells; settings: for JEV infection in A549 host cells (relative infectivity, FIG. 8A): 13 compounds from virtual screening; for entry of JEV into the host cells (FIG. 8B): A549 cells; for entry of JEV into the host cells (FIG. 8B) / JEV infection of host cells: about 50 MOI JEV; for JEV infection of host cells: A549 cells pretreated 1 h
JEV [4] = assay: High-content image assay, JEV infection of JEG-3 cells; settings: JEG-3 cells pretreated 1 h, about 50 MOI, 18 h
ZIKV [5] = assay: High-content image assay, ZIKV infection of JEG-3 cells; settings: JEG-3 cells pretreated 1 h, about 50 MOI, 18 h
JEV [6] = assay: Western blot of JEV-NS1 expression in JEV-infected A549 cells; settings: A549 cells pretreated 1 h
ZIKV [7] = assay: Western blot of ZIKV-E expression in ZIKV-infected A549 cells; settings: A549 cells pretreated 1 h
TRPMLs = assay: ML-SA1-induced cytosolic Ca2+ increase in Fura-2-loaded HeLa cells; format: cell-based
Experimental: (§1) HeLa cells were grown in 24-well plates to ˜80% confluency. The cells were then loaded with HBSS (Gibco, 14025092) containing 4 μM Fura-2 AM (Invitrogen, F1221) and 0.4% Pluronic™ F-127 (Invitrogen, P3000MP) at room temperature for 30 min. The cells were then washed with Ca^2+-free HBSS containing 2 mM EGTA and incubated in Ca^2+-free HBSS in the presence or absence of berbamine (10 μM) at room temperature for another 30 min. Fluorescence images were acquired at 3 s intervals by alternate excitation at 340 nm and 380 nm with emission at 510 nm using a Nikon Eclipse Ti-S Calcium imaging system. Approximately 1 min after live cell imaging, 200 μM GPN (Abcam, ab145914) or 25 μM ML-SA1 (Tocris Bioscience, 4746) was added to the cells to trigger Ca2+ release from the lysosomes.

Huh7 cells = assay: Secretion of extracellular vesicles by Huh7 cells, nanoparticle tracking analyzer; format: cell-based
Experimental: The EVs were collected from the culture medium of control or berbamine-treated Huh7 cells, and their concentration and distribution of sizes were determined with a nanoparticle tracking analyzer.
The inventors then examined whether these EVs contain elevated levels of ACE2 or DPP4 in the berbamine-treated group when compared with the control group. Thus, EVs in the culture medium from the control and berbamine-treated Huh7 cells were collected by ultracentrifugation, and the protein levels of ACE2 and DPP4 were analyzed by immunoblot analysis. […] The inventors also speculated that the increase in the secretion of ACE2 and DPP4-containing exosomes out of cells might lead to the reduced levels of these receptors in berbamine-treated cells. […] Similar results regarding the effects of berbamine on the expression of ACE2 in cells or EVs have also observed in A549 cells (FIGS. 15D and 15E). […] This leads to an increase in the level of secretion of ACE2 or DPP4 via EVs and a concomitant decrease in their levels at the plasma membrane.
Purification of extracellular vesicles from the culture medium-A549 cells or Huh7 cells were grown in 15-cm dishes to ˜80% confluency. The cells were then rinsed with PBS and incubated in EV-depleted complete medium containing DMSO or berbamine (25 μM) for 48 h. […]

[8] = Cytotoxicity in Hela cells; settings: human
JEV [9] = assay: JEV lethal challenge in mice; format: in vivo, BALB/c mice; settings: 15 days
Experimental: JEV-infected with berbamine-treated group. For infection, mice were injected intraperitoneally with approximately 10^6.5 TCID50 of JEV. For the berbamine treatment group, mice were injected intraperitoneally with a dose of 15 mg/kg berbamine or PBS daily. For the control-vehicle group, mice were injected intraperitoneally with a dose of 50 mg/kg PBS daily. Survival rate and change of body weight if the mice in each group were monitored for 15 days after JEV injection.

DENV-2 = assay: DsRNA immunostaining, DENV-2 infection of A549 cells; settings: pretreated 1 h, about 10 MOI DENV-2, dose dependent
[10] = Cytotoxicity in A549 cells; settings: human
SARS-CoV-2 [11] = assay: SARS-CoV-2 infection of Vero-E6 cells, virus titration assay; format: cell-based; settings: Severe acute respiratory syndrome coronavirus 2, Vero C1008, read-out: EC50, SARS-CoV-2 viral yield by virus titration assay
Experimental: FIG. 12F is a plot showing the inhibition rate determined by using virus titer measurement, in which Vero-E6 cells were treated with berbamine at the indicated concentrations for 3 h, followed by infection with SARS-CoV-2.

SARS-CoV-2 [12] = assay: in vitro; settings: African green monkey
ZIKV [13] = assay: High-content image assay (DsRNA immunostaining), ZIKV infection of A549 cells; settings: for ZIKV infection of host cells: A549 cells pretreated 1 h, about 50 MOI ZIKV
[14] = Cytotoxicity in Vero cells; settings: African green monkey
DPP4 = format: cell-based
EV-A71 = assay: High-content image assay, EV-A71 infection of RD cells; format: cell-based, enterovirus EV-A71 (EV-71); settings: 10 MOI EV-71, read-out: EC50 against EV-A71 infection in RD cells
From the text: After viral infection, the cells are fixed.

[15] = system: MERS-SARS-CoV S pseudotyped particles; format: cell-based
JEV [16] = assay: Virus titration assay, JEV production in A549 cells; settings: A549 cells pretreated
[17] = Cytotoxicity in Huh7 cells; settings: human
lysosomal Ca^2+ channels = assay: GPN-induced Ca2+ release from lysosomes in Fura-2-loaded HeLa cells; format: cell-based; settings: 10 μM, 200 μM GPN
Experimental: as §1

[18] = Cytotoxicity in BHK-21 cells; settings: Syrian hamster
MERS-CoV = format: cell-based
ACE2 = format: cell-based
[19] = system: MLV-SARS-CoV-2 S pseudotyped particles; format: cell-based
ZIKV [20] = assay: ZIKV entry, anti-ZIKV envelope protein immunostaining in A549 cells; settings: ZIKV on ice 1 h, then 37° C. 40 min
lentivirus = assay: Lentivirus (histone B-RFP) infection of A549 cells; format: cell-based; settings: pretreated A549 cells, lentivirus encoding histone B-RFP
SARS-CoV-2 [21] = assay: microbe, parasite or virus in culture; settings: Severe acute respiratory syndrome coronavirus 2, Vero C1008, read-out: EC50, SARS-CoV-2 viral yield by qRT-PCR assay
JEV [22] = assay: JEV-induced cell death in A549 or BHK-21 cells; settings: pretreated A549 cells or BHK-21 cells
[23] = 15 mg/kg intraperitoneally daily, vs control group
[24] = EVs from treated Huh7 cell culture medium
[25] = Vero-E6 cells, cycloheximide, 50 μM, 6 h

Structure (SMILES): CC(=O)OCOC(=O)CN(CC(=O)OCOC(C)=O)c1ccccc1OCCOc1ccccc1N(CC(=O)OCOC(C)=O)CC(=O)OCOC(C)=O [BAPTA-AM]
- viral positive RNA strand inside host cells (ZIKV [1]): no ZIKV positive RNA strand was spotted
- expression of JEV envelope protein (JEV [2]): markedly inhibited

Structure (SMILES): COc1cc(C(=O)N2c3ccccc3CCC2C)cc(OC)c1OC (stereo not drawn) [Compound #1]
- JEV infection in A549 host cells (relative infectivity, FIG. 8A) (JEV [3]): highest potency
- entry of JEV into the host cells (FIG. 8B) (JEV [3]): effectively block

Structure (SMILES): COc1cc2c(cc1OC)C(C)N(C(=O)c1ccc(Br)cc1)CC2 (stereo not drawn) [Compound #7]
- JEV infection in A549 host cells (relative infectivity, FIG. 8A) (JEV [3]): highest potency
- entry of JEV into the host cells (FIG. 8B) (JEV [3]): effectively block

Structure (SMILES): COc1cc2c(cc1OC)C(c1cc(OC)c(OC)c(OC)c1)OCC2 (stereo not drawn) [Compound #9]
- JEV infection in A549 host cells (relative infectivity, FIG. 8A) (JEV [3]): highest potency
- entry of JEV into the host cells (FIG. 8B) (JEV [3]): effectively block

Structure (SMILES): COc1cccc(C(=O)CC2c3c(cc4c(c3OC)OCO4)CCN2C)c1 (stereo not drawn) [Compound #11]
- JEV infection in A549 host cells (relative infectivity, FIG. 8A) (JEV [3]): highest potency
- entry of JEV into the host cells (FIG. 8B) (JEV [3]): effectively block

Structure (SMILES): COc1cc2c3cc1Oc1c(OC)c(OC)cc4c1[C@@H](Cc1ccc(OC(=O)c5ccc([N+](=O)[O-])cc5)c(c1)Oc1ccc(cc1)C[C@@H]3N(C)CC2)N(C)CC4 [E6 berbamine]
- JEV infection in JEG-3 cells (JEV [4]): significantly inhibited
- ZIKV infection in JEG-3 cells (ZIKV [5]): significantly inhibited
- protein expression of JEV-NS1 (JEV [6]): strong inhibition
- protein expression of ZIKV-E (ZIKV [7]): strong inhibition

Structure (SMILES): CC1CC(C)(C)N(C(=O)CN2C(=O)c3ccccc3C2=O)c2ccccc21 (stereo not drawn) [ML-SA1, reference compound]
- cytosolic Ca2+ levels (agonist effect) (TRPMLs; 25 μM): markedly increased

Structure (SMILES): COc1cc2c3cc1Oc1c(OC)c(OC)cc4c1[C@@H](Cc1ccc(O)c(c1)Oc1ccc(cc1)C[C@@H]3N(C)CC2)N(C)CC4 [berbamine]
- secretion of EVs (Huh7 cells): significantly promoted
- CC50 [8]: 115 ± 3.6 µM
- body weight change of mice after JEV challenge (JEV [9]; [23]): less weight changes
- survival rate of mice after JEV challenge (JEV [9]; [23]): increases the survival rate
- survival rate of mock (uninfected) mice given compound vs mock group (JEV [9]; mock group with 15 mg/kg): same survival rate
- DENV-2 infection in A549 cells (DENV-2): significantly inhibit
- CC50 [10]: 127 ± 3.9 µM
- EC50 (SARS-CoV-2 [11]): ~4.7 µM
- selectivity ratio (SARS-CoV-2 [12]): 48.9
- JEV infection in JEG-3 cells (JEV [4]): significantly inhibited
- selectivity ratio (ZIKV [13]; human): 58.4
- CC50 [14]: 115 ± 5.3 µM
- level of DPP4 in EVs (DPP4; [24]): markedly increased
- level of DPP4 in cells (DPP4; [25]): markedly decreased
- EC50 (EV-A71): ~17.3 µM
- EC50 (EV-A71; Enterovirus A, EV71 / EVA71, RD): ~17 µM
- entry of MERS-SARS-CoV S pseudovirus particles [15]: effectively inhibited; also recorded: inhibited the entry
- ML-SA1-induced cytosolic Ca2+ increase (TRPMLs; 10 μM, 25 μM ML-SA1): significantly inhibited
- ZIKV infection in JEG-3 cells (ZIKV [5]): significantly inhibited
- production of JEV (virus titer) (JEV [16]): significantly inhibited; also recorded: markedly inhibited
- protein expression of JEV-NS1 (JEV [6]): markedly inhibited
- CC50 [17]: 90.4 ± 2.98 µM
- protein expression of ZIKV-E (ZIKV [7]): markedly inhibited
- GPN-induced cytosolic Ca2+ increase (lysosomal Ca^2+ channels): significantly inhibited
- CC50 [18]: 127 ± 2.43 µM
- extracellular level of MERS-CoV RNA (MERS-CoV): significantly decreased
- intracellular level of MERS-CoV RNA (MERS-CoV): significantly decreased
- level of ACE2 in EVs (ACE2; [24]): markedly increased
- level of ACE2 in cells (ACE2; [25]): markedly decreased
- entry of MLV-SARS-CoV-2 S pseudovirus particles [19]: effectively inhibited; also recorded: inhibited the entry
- selectivity ratio (JEV [3]; human): 78.2
- entry of ZIKV into host cells (ZIKV [20]): inhibitory effect
- lentivirus infection of A549 cells (lentivirus): abolished
- EC50 (SARS-CoV-2 [21]): ~2.3 µM
- JEV-induced cell death (JEV [22]): markedly reduced

Structure (SMILES): COc1ccc2cc1Oc1ccc(cc1)C[C@H]1c3cc(c(OC)cc3CCN1C)Oc1c(O)c(OC)cc3c1[C@H](C2)N(C)CC3 [fangchinoline]
- DENV-2 infection in A549 cells (DENV-2): significantly inhibit
- JEV infection in JEG-3 cells (JEV [4]): significantly inhibited
- ZIKV infection of host cells (ZIKV [13]): significantly inhibited
- ZIKV infection in JEG-3 cells (ZIKV [5]): significantly inhibited
- JEV infection of host cells (JEV [3]): significantly inhibited

Structure (SMILES): COc1ccc2cc1Oc1ccc(cc1)C[C@H]1c3cc(c(OC)cc3CCN1C)Oc1c(OC)c(OC)cc3c1[C@@H](C2)N(C)CC3 [isotetrandrine]
- DENV-2 infection in A549 cells (DENV-2): significantly inhibit
- JEV infection in JEG-3 cells (JEV [4]): significantly inhibited
- ZIKV infection of host cells (ZIKV [13]): significantly inhibited
- ZIKV infection in JEG-3 cells (ZIKV [5]): significantly inhibited
- JEV infection of host cells (JEV [3]): significantly inhibited
